Source: article PMC9743148 (Annals of oncology : official journal of the European …, 2020)

System: patients with advanced solid tumors
Test: Treatment-emergent adverse events
Format: in vivo, human
[1] = Combined t.i.w. cohorts (n = 42)

C=CC(=O)N1CC[C@H](n2nc(C#Cc3cc(OC)cc(OC)c3)c3c(N)ncnc32)C1 [futibatinib]
Dry skin TEAE, Grade 4 [1]: 0 (0) n (%) | Fatigue TEAE, Any grade [1]: 7 (17) n (%) | Fatigue TEAE, Grade 1 [1]: 2 (5) n (%) | Fatigue TEAE, Grade 2 [1]: 5 (12) n (%) | Fatigue TEAE, Grade 3 [1]: 0 (0) n (%) | Fatigue TEAE, Grade 4 [1]: 0 (0) n (%) | Headache TEAE, Any grade [1]: 7 (17) n (%) | Headache TEAE, Grade 1 [1]: 6 (14) n (%) | Headache TEAE, Grade 2 [1]: 1 (2) n (%) | Headache TEAE, Grade 3 [1]: 0 (0) n (%) | Headache TEAE, Grade 4 [1]: 0 (0) n (%) | Hypercalcemia TEAE, Any grade [1]: 5 (12) n (%) | Hypercalcemia TEAE, Grade 1 [1]: 1 (2) n (%) | Hypercalcemia TEAE, Grade 2 [1]: 1 (2) n (%) | Hypercalcemia TEAE, Grade 3 [1]: 3 (7) n (%) | Hypercalcemia TEAE, Grade 4 [1]: 0 (0) n (%) | Hyperphosphatemia TEAE, Any grade [1]: 21 (50) n (%) | Hyperphosphatemia TEAE, Grade 1 [1]: 7 (17) n (%) | Hyperphosphatemia TEAE, Grade 2 [1]: 11 (26) n (%) | Hyperphosphatemia TEAE, Grade 4 [1]: 0 (0) n (%) | Hyperphosphatemia TEAE, grade 3 [1]: 3 (7) n (%) | Hypomagnesemia TEAE, Any grade [1]: 5 (12) n (%) | Hypomagnesemia TEAE, Grade 1 [1]: 4 (10) n (%) | Hypomagnesemia TEAE, Grade 2 [1]: 1 (2) n (%) | Hypomagnesemia TEAE, Grade 3 [1]: 0 (0) n (%) | Hypomagnesemia TEAE, Grade 4 [1]: 0 (0) n (%) | Hyponatremia TEAE, Any grade [1]: 5 (12) n (%) | Hyponatremia TEAE, Grade 1 [1]: 1 (2) n (%) | Hyponatremia TEAE, Grade 2 [1]: 0 (0) n (%) | Hyponatremia TEAE, Grade 3 [1]: 4 (10) n (%) | Hyponatremia TEAE, Grade 4 [1]: 0 (0) n (%) | Nausea TEAE, Any grade [1]: 12 (29) n (%) | Nausea TEAE, Grade 1 [1]: 11 (26) n (%) | Nausea TEAE, Grade 2 [1]: 0 (0) n (%) | Nausea TEAE, Grade 3 [1]: 1 (2) n (%) | Nausea TEAE, Grade 4 [1]: 0 (0) n (%) | Onycholysis TEAE, Any grade [1]: 5 (12) n (%) | Onycholysis TEAE, Grade 1 [1]: 4 (10) n (%) | Onycholysis TEAE, Grade 2 [1]: 1 (2) n (%) | Onycholysis TEAE, Grade 3 [1]: 0 (0) n (%) | Onycholysis TEAE, Grade 4 [1]: 0 (0) n (%) | Pyrexia TEAE, Any grade [1]: 5 (12) n (%) | Pyrexia TEAE, Grade 1 [1]: 4 (10) n (%) | Pyrexia TEAE, Grade 2 [1]: 0 (0) n (%) | Pyrexia TEAE, Grade 3 [1]: 1 (2) n (%) | Pyrexia TEAE, Grade 4 [1]: 0 (0) n (%) | Rash TEAE, Any grade [1]: 5 (12) n (%) | Rash TEAE, Grade 1 [1]: 5 (12) n (%) | Rash TEAE, Grade 2 [1]: 0 (0) n (%) | Rash TEAE, Grade 3 [1]: 0 (0) n (%) | Rash TEAE, Grade 4 [1]: 0 (0) n (%) | Stomatitis TEAE, Any grade [1]: 5 (12) n (%) | Stomatitis TEAE, Grade 1 [1]: 2 (5) n (%) | Stomatitis TEAE, Grade 2 [1]: 1 (2) n (%) | Stomatitis TEAE, Grade 3 [1]: 2 (5) n (%) | Stomatitis TEAE, Grade 4 [1]: 0 (0) n (%) | Treatment discontinuation because of TEAE, Any grade [1]: 1 (2) n (%) | Treatment discontinuation because of TEAE, Grade 1 [1]: 0 (0) n (%) | Treatment discontinuation because of TEAE, Grade 2 [1]: 0 (0) n (%) | Treatment discontinuation because of TEAE, Grade 3 [1]: 1 (2) n (%) | Treatment discontinuation because of TEAE, Grade 4 [1]: 0 (0) n (%) | Urinary tract infection TEAE, Any grade [1]: 5 (12) n (%) | Urinary tract infection TEAE, Grade 1 [1]: 0 (0) n (%) | Urinary tract infection TEAE, Grade 2 [1]: 4 (10) n (%) | Urinary tract infection TEAE, Grade 3 [1]: 1 (2) n (%) | Urinary tract infection TEAE, Grade 4 [1]: 0 (0) n (%) | Vomiting TEAE, Any grade [1]: 9 (21) n (%) | Vomiting TEAE, Grade 1 [1]: 5 (12) n (%) | Vomiting TEAE, Grade 2 [1]: 3 (7) n (%) | Vomiting TEAE, Grade 3 [1]: 1 (2) n (%) | Vomiting TEAE, Grade 4 [1]: 0 (0) n (%) | Hyperphosphatemia TEAE, grade 3 (combined q.d. cohorts): 16% | Hyperphosphatemia TEAE, any grade (combined q.d. cohorts, 30 of 44 patients): 68% | Hyperphosphatemia TEAE, grade 3 (combined t.i.w. cohorts): 7% | Hyperphosphatemia TEAE, any grade (combined t.i.w. cohorts, 21 of 42 patients): 50% | Patients with grade ≥3 TEAEs (overall population): > 50% | Grade 3 hyponatremia TEAE (overall population (n = 86)): 7% | Hyperphosphatemia leading to dose reductions (overall population (n = 86)): 6% | Hyperphosphatemia leading to dosing interruptions (overall population (n = 86)): 17% | Patients with grade 3 TEAEs (overall population (n = 86)): 48% | Patients with grade 4 TEAEs (overall population (n = 86)): 6% | Patients with treatment-related grade 3 AEs (overall population (n = 86)): 30% | TEAEs leading to treatment discontinuations (overall population (n = 86)): 3% | Treatment-related deaths (overall population (n = 86)): No treatment-related deaths
